We go through 53 compounds from patent US8648118B2, “Bicyclic ring system substituted amide functionalised phenols as medicaments” (Boehringer Ingelheim International GmbH, priority 2010, dated 2014).

This test concerns the target T1, BAF/3 cells expressing human CXCR2 (Homo sapiens, UniProt P25025).
T1 construct: expressed in transfected cells; host or cells: BAF/3 cells
T1 sequence (P25025 1-360): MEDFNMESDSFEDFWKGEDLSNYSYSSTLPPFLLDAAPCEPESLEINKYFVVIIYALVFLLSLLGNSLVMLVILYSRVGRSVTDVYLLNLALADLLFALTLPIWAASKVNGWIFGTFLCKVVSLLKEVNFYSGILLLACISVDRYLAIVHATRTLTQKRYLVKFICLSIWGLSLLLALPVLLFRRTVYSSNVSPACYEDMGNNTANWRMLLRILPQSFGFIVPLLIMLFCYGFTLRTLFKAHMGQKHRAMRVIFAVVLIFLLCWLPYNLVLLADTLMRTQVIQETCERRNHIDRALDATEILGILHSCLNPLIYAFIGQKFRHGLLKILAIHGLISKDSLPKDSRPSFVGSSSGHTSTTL
The experiment in a line: Chemotaxis assay 1, transfected cell line: inhibition of CXCL1 induced chemotaxis. It is filed as cell-based. The following applies: inhibition of CXCL1 (3 nM) induced chemotaxis of BAF/3 cells expressing human CXCR2; 4 hours incubation. The procedure:
Chemotaxis assay 1, transfected cell line: This assay measures the inhibition of CXCL1 induced chemotaxis of BAF/3 cells expressing human CXCR2. For each assay point, 100 μL of a 3×10^6/mL cell suspension are incubated with 1 μL of test compound diluted in DMSO. The bottom wells of a chemotaxis plate (5 μm pore size, Neuroprobe) is filled with 305 μL of chemotaxis buffer (RPMI 1640 medium (phenol red free), containing 2% fetal calf serum) and 3 nM CXCL1. The 5 μm pore membrane is applied onto the chemotaxis plate and 80 μL of the cell suspension is cautiously pipetted onto the membrane. The lid is put on the chemotaxis plate and the plate is incubated for 4 hours in an incubator (37° C., 5% CO2). For quantification of migrated cells, the cell suspension and the lid are removed and 100 μL from the bottom chamber are transferred to an Opti plate 96 (Perkin Elmer). 100 μL of substrate solution (provided by Cell Titer Glo kit, Promega) are added. This method uses the measurement of ATP present in metabolically active cells. After 10 min incubation at room temperature the plate is measured at Luminoscan for quantification of ATP-dependent generation of oxyluciferin. IC50s of the tested compound are calculated by non-linear regression and using a sigmoidal dose-response curve as fitting algorithm (provided by GraphPadPrism). Determination of a bottom value is performed by quantification of migration of buffer treated cells, migrating towards buffer only. Determination of a top value is performed by quantification of migration of buffer treated cells, migrating towards CXCL1.
For the compound `O=C(Nc1ccccc1Br)Nc1cccc(C(=O)N2CCC3(CCNC3=O)CC2)c1O` [Example 1], the IC50 (commonly the concentration that inhibits the measured activity by half) is 597 nM. This counts as sub-micromolar. The compound `O=C(Nc1cccc(C(=O)N2CCC3(CCNC3=O)CC2)c1O)Nc1cccc(Cl)c1Cl` [Example 3] gave an IC50 of 634 nM. The same measure for `O=C(Nc1cccc(C(=O)N2CCC3(CCNC3=O)CC2)c1O)Nc1cccc(F)c1Cl` [Example 4]: 34 nM. The same measure for `O=C(Nc1ccccc1Br)Nc1cccc(C(=O)N2CCN3CCCC3C2)c1O` (centres unmarked) [Example 5]: 377 nM; for `O=C(Nc1cccc(C(=O)N2CCN3CCCC3C2)c1O)Nc1cccc(Cl)c1Cl` (centres unmarked) [Example 7]: 2570 nM; for `O=C(Nc1ccccc1Br)Nc1cccc(C(=O)N2CCN3CCC[C@@H]3C2)c1O` [Example 8]: 651 nM.

`O=C(Nc1cccc(C(=O)N2CCN3CCC[C@@H]3C2)c1O)Nc1cccc(F)c1Cl` [Example 9] yielded an IC50 of 22 nM. Regarding `O=C(Nc1ccccc1Br)Nc1cccc(C(=O)N2CCN3CCC[C@H]3C2)c1O` [Example 10], half-maximal inhibition (IC50) required 260 nM. This IC50 is about 12-fold higher than that of the compound before. To `O=C(Nc1cccc(C(=O)N2CCN3CCC[C@H]3C2)c1O)Nc1cccc(F)c1Cl` [Example 11] belongs 41 nM; to `O=C(Nc1ccccc1Br)Nc1cccc(C(=O)N2CCN3C(=O)CCC3C2)c1O` (centres unmarked) [Example 12], 119 nM; to `O=C(Nc1cccc(C(=O)N2CCN3C(=O)CCC3C2)c1O)Nc1cccc(Cl)c1Cl` (centres unmarked) [Example 13], 47 nM.

The compound `O=C(Nc1cccc(C(=O)N2CCN3C(=O)CCC3C2)c1O)Nc1cccc(F)c1Cl` (centres unmarked) [Example 14] registered an IC50 of 11 nM. Against the preceding compound, the IC50 is about 4.3-fold lower. The same measure for `O=C(Nc1cccc(C(=O)N2CC(=O)N3CCCC3C2)c1O)Nc1cccc(F)c1Cl` (centres unmarked) [Example 15]: 86 nM; for `O=C(Nc1ccccc1Br)Nc1cccc(C(=O)N2CC(=O)N3CCCC3C2)c1O` (centres unmarked) [Example 16]: 85 nM. In the case of `O=C(Nc1cccc(C(=O)N2CCN3CCOCC3C2)c1O)Nc1cccc(F)c1Cl` (centres unmarked) [Example 17], the concentration for half-maximal inhibition (IC50) turned out to be 1.2 nM. `O=C(Nc1cccc(C(=O)N2CCN3C(=O)COC[C@H]3C2)c1O)Nc1cccc(F)c1Cl` [Example 18] gave a 50% inhibitory concentration (IC50) of 11 nM. In turn, `O=C(Nc1cccc(C(=O)N2CCN3C(=O)COC[C@@H]3C2)c1O)Nc1cccc(F)c1Cl` [Example 19] yielded a half-maximal inhibitory concentration (IC50) of 50 nM.

The compound `CCC(Nc1c(Nc2cccc(C(=O)N3CCN4CCCC4C3)c2O)c(=O)c1=O)c1ccccc1` (centres unmarked) [Example 20] returned an IC50 of 16 nM. In turn, `O=C(c1cccc(Nc2c(Nc3cccc(F)c3Cl)c(=O)c2=O)c1O)N1CCN2CCCC2C1` (centres unmarked) [Example 21] gave an IC50 of 8 nM. Consider `O=C(c1cccc(Nc2c(Nc3ccccc3Br)c(=O)c2=O)c1O)N1CCN2CCCC2C1` (centres unmarked) [Example 22], for which half-maximal inhibition (IC50) was put at 1.5 nM. To `CC[C@H](Nc1c(Nc2cccc(C(=O)N3CCN4CCC[C@@H]4C3)c2O)c(=O)c1=O)c1ccccc1` [Example 23] belongs 2740 nM; to `CC[C@@H](Nc1c(Nc2cccc(C(=O)N3CCN4CCC[C@@H]4C3)c2O)c(=O)c1=O)c1ccccc1` [Example 24], 3.2 nM. The compound `CC[C@H](Nc1c(Nc2cccc(C(=O)N3CCN4CCC[C@H]4C3)c2O)c(=O)c1=O)c1ccccc1` [Example 25] returned an IC50 of 1350 nM.

`CC[C@@H](Nc1c(Nc2cccc(C(=O)N3CCN4CCC[C@H]4C3)c2O)c(=O)c1=O)c1ccccc1` [Example 26] had a half-inhibitory concentration (IC50) of 3.9 nM.

`CC[C@@H](Nc1c(Nc2cccc(C(=O)N3CCN4CCC[C@H]4C3)c2O)c(=O)c1=O)c1ccc(C)o1` [Example 27]: inhibition was half-maximal at 0.1 nM (IC50).

For the compound `CC[C@@H](Nc1c(Nc2cccc(C(=O)N3CCN4CCC[C@H]4C3)c2O)c(=O)c1=O)c1ccc(C(F)(F)F)o1` [Example 28], the IC50 stood at 40 nM. Compared with the last compound, the IC50 is about 400-fold higher. In turn, `CCC(Nc1c(Nc2cccc(C(=O)N3CCC4(CCNC4=O)CC3)c2O)c(=O)c1=O)c1ccccc1` (centres unmarked) [Example 29] gave a half-inhibitory concentration (IC50) of 4.1 nM.

In turn, `CC[C@@H](Nc1c(Nc2cccc(C(=O)N3CCN4C(=O)CCC4C3)c2O)c(=O)c1=O)c1ccccc1` (some centres unmarked) [Example 30] came in with an IC50 of 267 nM. In turn, `CC[C@@H](Nc1c(Nc2cccc(C(=O)N3CC(=O)N4CCCC4C3)c2O)c(=O)c1=O)c1ccccc1` (some centres unmarked) [Example 31] showed an IC50 of 662 nM. With `CC[C@@H](Nc1c(Nc2cccc(C(=O)N3CCS(=O)(=O)C4(CCNC4=O)C3)c2O)c(=O)c1=O)c1ccccc1` (some centres unmarked) [Example 32], the 50% inhibitory concentration (IC50) is 401 nM. This IC50 lies about 1.7-fold lower than the previous one. The compound `CC[C@@H](Nc1c(Nc2cccc(C(=O)N3CCC4(CCNC4=O)CC3)c2O)c(=O)c1=O)c1ccccc1` [Example 34] had a 50% inhibitory concentration (IC50) of 126 nM.

As to `CC[C@@H](Nc1c(Nc2cccc(C(=O)N3CCN4CCOCC4C3)c2O)c(=O)c1=O)c1ccccc1` (some centres unmarked) [Example 35], the half-inhibitory concentration (IC50) came out at 16 nM. Compound `CC[C@@H](Nc1c(Nc2cccc(C(=O)N3CC4(COC4)C3)c2O)c(=O)c1=O)c1ccccc1` [Example 36] had an IC50 of 25 nM. `CC[C@@H](Nc1c(Nc2cccc(C(=O)N3CCC4(CCCC4)CC3)c2O)c(=O)c1=O)c1ccccc1` [Example 37]: it took 26 nM to reach half-maximal inhibition (IC50). To `CC[C@@H](Nc1c(Nc2cccc(C(=O)N3CCN4C(=O)COC[C@@H]4C3)c2O)c(=O)c1=O)c1ccccc1` [Example 38] belongs 3.4 nM.

On to `CC[C@@H](Nc1c(Nc2cccc(C(=O)N3CC4OC(C)(C)C[C@@H]4[C@H]3C(=O)OC)c2O)c(=O)c1=O)c1ccccc1` (some centres unmarked) [Example 39], for which the IC50 amounted to 23 nM. `CC[C@@H](Nc1c(Nc2cccc(C(=O)N3CC4OC(C)(C)C[C@@H]4[C@H]3CO)c2O)c(=O)c1=O)c1ccccc1` (some centres unmarked) [Example 40]: the IC50 worked out at 34 nM. The IC50 values of the last two compounds are within 1.5-fold of each other. As to `CC[C@@H](Nc1c(Nc2cccc(C(=O)N3CCC4C(=O)NCCC43)c2O)c(=O)c1=O)c1ccccc1` (some centres unmarked) [Example 41], the IC50 was found to be 66 nM. `CC[C@@H](Nc1c(Nc2cccc(C(=O)N3CCO[C@@H]4CNC[C@H]43)c2O)c(=O)c1=O)c1ccccc1` [Example 42]: the IC50 worked out at 45 nM. The compound `CC[C@@H](Nc1c(Nc2cccc(C(=O)N3CCO[C@@H]4CN(C)C[C@H]43)c2O)c(=O)c1=O)c1ccccc1` [Example 43] gave an IC50 of 11 nM. `CC[C@@H](Nc1c(Nc2cccc(C(=O)N3CCC4(CC3)COCC(=O)N4)c2O)c(=O)c1=O)c1ccccc1` [Example 44]: the IC50 is 2130 nM. This IC50 is about 190-fold higher than that of the compound before.

Consider `CC[C@@H](Nc1c(Nc2cccc(C(=O)N3CC4OCCN(C)C4C3)c2O)c(=O)c1=O)c1ccccc1` (some centres unmarked) [Example 45], for which the half-inhibitory concentration (IC50) worked out at 3.3 nM. Turning to `CC[C@@H](Nc1c(Nc2cccc(C(=O)N3CCN4CCOC[C@H]4C3)c2O)c(=O)c1=O)c1ccccc1` [Example 46], the half-inhibitory concentration (IC50) worked out at 51 nM. Regarding `CC[C@@H](Nc1c(Nc2cccc(C(=O)N3CCN4C(CCS4(=O)=O)C3)c2O)c(=O)c1=O)c1ccccc1` (some centres unmarked) [Example 47], half-maximal inhibition (IC50) required 818 nM.

Compound `CC[C@@H](Nc1c(Nc2cccc(C(=O)N3CCN4C(=O)CCC4C3)c2O)c(=O)c1=O)c1ccc(C(F)(F)F)o1` (some centres unmarked) [Example 48] displayed a half-maximal inhibitory concentration (IC50) of 859 nM. As to `CC[C@@H](Nc1c(Nc2cccc(C(=O)N3CCN4CCNC(=O)C4C3)c2O)c(=O)c1=O)c1ccccc1` (some centres unmarked) [Example 49], the IC50 was determined as 926 nM. The compound `CC[C@@H](Nc1c(Nc2cccc(C(=O)N3CCC4(CCNC4=O)CC3)c2O)c(=O)c1=O)c1ccc(C)o1` [Example 50] showed an IC50 of 1850 nM. To `O=C(c1cccc(Nc2c(Nc3cccc(F)c3Cl)c(=O)c2=O)c1O)N1CCN2CCCCC2C1` (centres unmarked) [Example 51] belongs 247 nM.

`O=C(c1cccc(Nc2c(Nc3cccc(F)c3Cl)c(=O)c2=O)c1O)N1CCC2(CCNC2=O)CC1` [Example 52] registered an IC50 of 6.2 nM.

The compound `O=C(c1cccc(Nc2c(Nc3cccc(F)c3Cl)c(=O)c2=O)c1O)N1CC2(COC2)C1` [Example 53] gave a 50% inhibitory concentration (IC50) of 360 nM. In turn, `O=C(c1cccc(Nc2c(Nc3cccc(F)c3Cl)c(=O)c2=O)c1O)N1CCN2CCOCC2C1` (centres unmarked) [Example 54] gave a concentration for half-maximal inhibition (IC50) of 67 nM. Take `O=C1NCCC2C1CCN2C(=O)c1cccc(Nc2c(Nc3cccc(F)c3Cl)c(=O)c2=O)c1O` (centres unmarked) [Example 55]: the 50% inhibitory concentration (IC50) is 617 nM. The same measure for `O=C(c1cccc(Nc2c(Nc3cccc(F)c3Cl)c(=O)c2=O)c1O)N1CC(=O)N2CCCC2C1` (centres unmarked) [Example 56]: 865 nM.
